Test results as given in patent US4139632A, “Psychotropic 2-trifluoromethyl-10-[3-(3-hydroxy-pyrrolidino)-propyl]-phenothiazine compounds” (Eisai Co., Ltd., priority 1975, dated 1979).

Columns and labels:
Type in all cases: in vivo
Mouse [1] = assay: Anti-methanphethamine activity (neuroleptic activity); conditions: read-out: Anti-methanphethamine, 50% effective amount (ED50)
Protocol: (§1) Measurement of pharmacological activities are conducted in accordance with the procedures described in the following literatures: […]

Mouse [2] = assay: Anti-tremorine activity (anti-Parkinson activity); conditions: for ED50: read-out: Anti-tremorine activity, 50% effective amount (ED50)
Protocol: as §1

Mouse [3] = assay: Anti-writhing effect (analgetic activity); conditions: read-out: Anti-writhing effect, 50% effective amount (ED50)
Protocol: (§2) Measurement of pharmacological activities are conducted in accordance with the procedures described in the following literatures:
Proc. Soc. […] Biol, & Med.,

Mouse [4] = assay: Inhibitory effect of spontaneous motor activity; conditions: read-out: Inhibitory effect of spontaneous motor activity, 50% effective amount (ED50)
Protocol: as §2
1) Svensson, T. H. et al

Mouse [5] = assay: Acute toxicity LD50, oral administration; conditions: compared with chlorpromazine and fluphenazine

## CN(C)CCCN1c2ccccc2Sc2ccc(Cl)cc21 [Chlorpromazine]
Mouse [1]; Mus musculus, po
  ED50: 5.6 mg/kg
Mouse [2]; Mus musculus, po
  ED50: 2.3 mg/kg
Mouse [3]; Mus musculus, po
  ED50: 9.4 mg/kg
Mouse [4]; Mus musculus, po
  ED50: 13 mg/kg

## Cl.OC1CCN(CCCN2c3ccccc3Sc3ccc(C(F)(F)F)cc32)C1 (stereo not drawn) [Compound A, 2-trifluoromethyl-10-[3-(3-hydroxy-pyrrolidino)-propyl]-phenothiazine hydrochloride]
Mouse [5]
  acute toxicity (LD50) relative to chlorpromazine and fluphenazine: far less than that of chlorpromazine and fluphenazine
Mouse [1]; mouse, oral administration
  ED50: 0.9 mg/kg
Mouse [2]; concluded from table comparison
  central anticholinergic activity: has central anticholinergic activity
Mouse [2]; mouse, oral administration
  ED50: 3.6 mg/kg
Mouse [3]; mouse, oral administration
  ED50: 1 mg/kg
Mouse [4]; mouse, oral administration
  ED50: 3.3 mg/kg

## OCCN1CCN(CCCN2c3ccccc3Sc3ccc(C(F)(F)F)cc32)CC1 [Fluphenazine]
Mouse [1]; mouse, oral administration
  ED50: 0.5 mg/kg
Mouse [2]; mouse, oral administration
  ED50: 12 mg/kg
Mouse [3]; mouse, oral administration
  ED50: 2.5 to 10 mg/kg
Mouse [4]; mouse, oral administration
  ED50: 2.1 mg/kg

## Cl.FC(F)(F)c1ccc2c(c1)N(CCCN1CCCC1)c1ccccc1S2 [Known Compound a, 2-trifluoromethyl-10-(3-pyrrolidino-propyl)-phenothiazine hydrochloride]
Mouse [1]; mouse, oral administration
  ED50: 1.9 mg/kg
Mouse [2]; mouse, oral administration
  ED50: 4.3 mg/kg
Mouse [3]; mouse, oral administration
  ED50: 4.1 mg/kg
Mouse [4]; mouse, oral administration
  ED50: 3.8 mg/kg
